Results taken from US11834453B2, “Substituted pyrimido[5,4-d]pyrimidines as HER2 inhibitors” (Array BioPharma Inc., priority 2020, dated 2023).
Like-named read-outs stand apart in the source and are kept apart here.

What was measured:
ErbB2 WT = ErbB2 WT (Homo sapiens (Human), UniProt P04626); assay: ErbB enzyme assay (CisBio HTRF KinEASE-TK), Assay 2; format: biochemical
How it was run: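 ErbB2 phosphorylates 250 nM biotin-TK substrate at 1 mM ATP in 25 mM HEPES pH 7.4, 10 mM MgCl2, 0.01% Triton X-100 and 2% DMSO, for 30 min at 22 °C. Product is detected by HTRF with Sa-XL665 and TK-Ab-Cryptate. Percent of control is set by DMSO-only wells and pre-quenched wells.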

MDR1 (P-gp) = MDR1 (P-gp) (Homo sapiens (Human), UniProt P08183); assay: MDR1 transfected MDCKII canine Mdr1 knockout permeability/efflux, Assay 7; settings: dog, MDCK-MDR1
Method: Both MDR1 transfected LLC-PK1 (Assay 6) and MDR1 transfected MDCKII canine Mdr1 knockout cells (Assay 7) were cultured and plated according to manufacturer's recommendations with the exception that the passage media for the MDR1 transfected LLC-PK1 cell line contained only 2% fetal bovine serum so as to extend passage time out to seven days.
Both positive and negative controls were used to assess functionality of P-gp or BCRP efflux in the assays. Stock solutions for assay controls and the test article were prepared in DMSO for final test concentration of 1 μM. Final organic concentration in the assay was 1%. All dosing solutions contained 10 μM lucifer yellow to monitor MDCKII cell monolayer integrity.
For the apical to basolateral determination (A to B), 75 μL of the test article in transport buffer were added to the apical side of the individual transwells and 250 μL of basolateral media, without compound or lucifer yellow, were added to each well. For the basolateral to apical determination (B to A), 250 μL of test article in transport buffer were added to each well and 75 μL transport buffer, without compound or lucifer yellow, were added to each transwell. All tests were performed in triplicate, and each compound was tested for both apical to basolateral and basolateral to apical transport. The plates were incubated for 2 hours on a Lab-Line Instruments Titer Orbital Shaker (VWR, West Chester, PA) at 50 rpm and 37° C. with 5% CO2. All culture plates were removed from the incubator, 50 μL of media were removed from the apical and basolateral portion of each well, and added to 150 μL of 1 μM labetalol in 2:1 acetonitrile (ACN): H2O, v/v.
The plates were read using a Molecular Devices (Sunnyvale, CA) Gemini Fluorometer to evaluate the lucifer yellow concentrations at excitation/emission wavelengths of 425/535 nm. These values were accepted when found to be below 2% for apical to basolateral and 5% basolateral to apical flux across the MDR1-transfected LLC-PK1 or BCRP-transfected MDCKII cell monolayers. The plates were sealed, and the contents of each well analyzed by LC MS/MS. The compound concentrations were determined from the ratio of the peak areas of the compound to the internal standard (labetalol) in comparison to the dosing solution.
A MDS Sciex API 4000 (Applied Biosystems, Foster City, CA) mass spectrometer was used for detection of the analytes in the ion spray positive mode. Analyte responses were measured by multiple reaction monitoring (“MRM”) of transitions unique to each compound (the protonated precursor ion and selected product ions for each test article and m/z 329 to m/z 162 for labetalol, the internal standard.
The total run time, including re-equilibration, for a single injection was 1.2 minutes. […] The total run time, including re-equilibration, for a single injection was 0.61 minutes.
An efflux ratio is calculated from the mean apical to basolateral (A-B) Papp data and basolateral to apical (B-A) Papp data: Efflux ratio=Papp(B−A)/Papp(A−B)

BCRP = BCRP (Homo sapiens (Human), UniProt Q9UNQ0); assay: BCRP transfected MDCKII canine Mdr1 knockout permeability/efflux, Assay 9; settings: dog
EGFR = EGFR (Homo sapiens (Human), UniProt P00533); assay: ErbB enzyme assay (CisBio HTRF KinEASE-TK), Assay 3; format: biochemical
How it was run: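 Kinase incubated 30 min at 22 °C with 250 nM biotinylated TK substrate, 1 mM ATP and serially diluted compound in 25 mM HEPES pH 7.4, 10 mM MgCl2, 0.01% Triton X-100, 2% DMSO. Phosphorylation read by HTRF (Sa-XL665/TK-Ab-Cryptate); IC50 from 4-parameter fit of percent of control.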

EGFR wild type (EGFR WT) = EGFR wild type (EGFR WT) (Homo sapiens (Human), UniProt P00533); assay: Cellular phosphorylation assay, EGF-stimulated EGFR phosphorylation in engineered NIH 3T3 cells, Phospho-EGFR DuoSet IC ELISA, Assay 5; format: cell-based
How it was run: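 NIH 3T3 cells expressing EGFR WT (20,000/well, attached overnight) were exposed to serially diluted compound for 1 h at 37 °C, then stimulated with 100 ng/ml rEGF for 10 min. Phospho-EGFR in lysates measured by sandwich ELISA optical density; IC50 from curves.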

[1] = target: ErbB2 insYVMA (HER2-YVMA, SEQ ID NO: 2) (Homo sapiens, UniProt P04626, INS775YVMA/P1170A); assay: biochemical; settings: ErbB2 insYVMA enzyme assay
[2] = target: ErbB2 with Exon 20 YVMA insertion (HER2-YVMA) (Homo sapiens (Human), UniProt P04626, INS775YVMA); assay: Cellular phosphorylation assay, constitutive ErbB2 phosphorylation (Y1196) in engineered NIH 3T3 cells, Assay 4; format: cell-based
How it was run: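 Engineered NIH 3T3 cells expressing HER2-YVMA treated with compounds 1 h at 37 °C, then formaldehyde-fixed and methanol-permeabilized. pErbB2 Y1196 detected by in-cell infrared immunofluorescence, normalized to GAPDH. IC50 from the normalized curves.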

[3] = Assay 9 Pe Ratio, efflux ratio Papp(B-A)/Papp(A-B), BCRP transfected MDCKII canine Mdr1 knockout

Sequence of ErbB2 insYVMA (HER2-YVMA, SEQ ID NO: 2) (P04626 with tags, fused parts or gaps INS775YVMA/P1170A limits assumed): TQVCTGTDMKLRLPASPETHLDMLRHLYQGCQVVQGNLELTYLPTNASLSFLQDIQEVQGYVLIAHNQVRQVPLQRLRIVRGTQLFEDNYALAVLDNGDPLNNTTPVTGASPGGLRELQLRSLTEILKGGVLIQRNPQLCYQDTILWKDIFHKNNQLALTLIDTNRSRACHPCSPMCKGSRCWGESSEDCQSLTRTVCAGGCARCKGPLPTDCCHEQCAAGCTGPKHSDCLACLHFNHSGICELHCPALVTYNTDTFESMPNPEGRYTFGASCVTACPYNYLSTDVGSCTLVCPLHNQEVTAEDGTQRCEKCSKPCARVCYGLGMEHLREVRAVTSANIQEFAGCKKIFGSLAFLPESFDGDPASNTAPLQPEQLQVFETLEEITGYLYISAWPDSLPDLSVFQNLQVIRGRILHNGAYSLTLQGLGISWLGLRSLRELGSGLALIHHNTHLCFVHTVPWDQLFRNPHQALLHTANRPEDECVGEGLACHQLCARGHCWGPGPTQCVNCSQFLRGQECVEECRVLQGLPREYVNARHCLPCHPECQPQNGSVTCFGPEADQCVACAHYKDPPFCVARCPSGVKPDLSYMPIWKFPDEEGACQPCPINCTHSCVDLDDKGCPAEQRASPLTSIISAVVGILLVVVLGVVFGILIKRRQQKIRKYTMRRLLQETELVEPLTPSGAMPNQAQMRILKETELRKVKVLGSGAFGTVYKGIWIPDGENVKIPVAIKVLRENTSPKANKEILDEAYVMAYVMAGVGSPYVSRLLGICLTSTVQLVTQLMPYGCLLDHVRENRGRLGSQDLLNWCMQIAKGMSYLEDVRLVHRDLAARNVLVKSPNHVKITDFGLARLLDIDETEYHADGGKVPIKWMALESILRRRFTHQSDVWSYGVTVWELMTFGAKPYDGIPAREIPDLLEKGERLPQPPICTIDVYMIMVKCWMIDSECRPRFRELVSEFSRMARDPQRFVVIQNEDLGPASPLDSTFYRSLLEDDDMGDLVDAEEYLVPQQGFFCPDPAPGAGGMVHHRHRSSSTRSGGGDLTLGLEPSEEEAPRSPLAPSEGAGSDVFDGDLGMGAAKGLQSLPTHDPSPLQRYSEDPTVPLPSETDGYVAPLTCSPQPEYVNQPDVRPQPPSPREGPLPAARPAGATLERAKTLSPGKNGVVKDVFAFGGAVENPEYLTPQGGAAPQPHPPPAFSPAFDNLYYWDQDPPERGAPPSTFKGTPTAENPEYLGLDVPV
Sequence of MDR1 (P-gp) (P08183 whole entry): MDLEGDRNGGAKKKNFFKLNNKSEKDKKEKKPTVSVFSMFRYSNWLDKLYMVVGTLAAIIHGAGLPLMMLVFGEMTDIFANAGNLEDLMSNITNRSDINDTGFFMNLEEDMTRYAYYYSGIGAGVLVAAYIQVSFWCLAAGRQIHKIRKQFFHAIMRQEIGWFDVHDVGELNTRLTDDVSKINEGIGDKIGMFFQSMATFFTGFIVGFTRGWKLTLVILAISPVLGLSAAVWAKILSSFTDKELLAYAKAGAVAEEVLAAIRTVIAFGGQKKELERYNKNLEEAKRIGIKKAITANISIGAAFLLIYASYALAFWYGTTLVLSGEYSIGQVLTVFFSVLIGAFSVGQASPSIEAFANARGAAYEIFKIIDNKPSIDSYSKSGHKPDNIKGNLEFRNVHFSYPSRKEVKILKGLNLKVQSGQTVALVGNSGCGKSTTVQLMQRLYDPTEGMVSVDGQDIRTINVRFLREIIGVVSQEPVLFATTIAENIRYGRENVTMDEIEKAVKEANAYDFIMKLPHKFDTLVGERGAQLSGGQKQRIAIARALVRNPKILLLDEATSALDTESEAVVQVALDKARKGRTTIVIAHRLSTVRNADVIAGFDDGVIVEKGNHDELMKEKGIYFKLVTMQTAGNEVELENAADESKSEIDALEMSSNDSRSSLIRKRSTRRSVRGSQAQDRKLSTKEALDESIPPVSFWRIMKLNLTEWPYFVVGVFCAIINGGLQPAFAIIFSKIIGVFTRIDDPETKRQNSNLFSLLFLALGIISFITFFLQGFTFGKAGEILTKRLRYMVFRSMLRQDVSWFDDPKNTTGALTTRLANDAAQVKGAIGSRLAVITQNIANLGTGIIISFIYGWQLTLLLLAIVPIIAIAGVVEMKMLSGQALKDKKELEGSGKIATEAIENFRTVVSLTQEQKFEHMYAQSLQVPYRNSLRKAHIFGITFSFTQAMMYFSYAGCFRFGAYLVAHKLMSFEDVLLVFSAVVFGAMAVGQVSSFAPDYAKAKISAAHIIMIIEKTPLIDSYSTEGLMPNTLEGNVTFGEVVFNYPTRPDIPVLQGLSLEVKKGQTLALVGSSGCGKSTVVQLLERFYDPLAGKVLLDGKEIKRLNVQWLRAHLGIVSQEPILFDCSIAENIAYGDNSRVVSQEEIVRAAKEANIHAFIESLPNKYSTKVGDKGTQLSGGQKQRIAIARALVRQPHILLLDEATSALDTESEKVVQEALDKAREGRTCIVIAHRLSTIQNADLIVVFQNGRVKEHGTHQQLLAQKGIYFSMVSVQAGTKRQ
Sequence of ErbB2 WT (P04626 23-1255): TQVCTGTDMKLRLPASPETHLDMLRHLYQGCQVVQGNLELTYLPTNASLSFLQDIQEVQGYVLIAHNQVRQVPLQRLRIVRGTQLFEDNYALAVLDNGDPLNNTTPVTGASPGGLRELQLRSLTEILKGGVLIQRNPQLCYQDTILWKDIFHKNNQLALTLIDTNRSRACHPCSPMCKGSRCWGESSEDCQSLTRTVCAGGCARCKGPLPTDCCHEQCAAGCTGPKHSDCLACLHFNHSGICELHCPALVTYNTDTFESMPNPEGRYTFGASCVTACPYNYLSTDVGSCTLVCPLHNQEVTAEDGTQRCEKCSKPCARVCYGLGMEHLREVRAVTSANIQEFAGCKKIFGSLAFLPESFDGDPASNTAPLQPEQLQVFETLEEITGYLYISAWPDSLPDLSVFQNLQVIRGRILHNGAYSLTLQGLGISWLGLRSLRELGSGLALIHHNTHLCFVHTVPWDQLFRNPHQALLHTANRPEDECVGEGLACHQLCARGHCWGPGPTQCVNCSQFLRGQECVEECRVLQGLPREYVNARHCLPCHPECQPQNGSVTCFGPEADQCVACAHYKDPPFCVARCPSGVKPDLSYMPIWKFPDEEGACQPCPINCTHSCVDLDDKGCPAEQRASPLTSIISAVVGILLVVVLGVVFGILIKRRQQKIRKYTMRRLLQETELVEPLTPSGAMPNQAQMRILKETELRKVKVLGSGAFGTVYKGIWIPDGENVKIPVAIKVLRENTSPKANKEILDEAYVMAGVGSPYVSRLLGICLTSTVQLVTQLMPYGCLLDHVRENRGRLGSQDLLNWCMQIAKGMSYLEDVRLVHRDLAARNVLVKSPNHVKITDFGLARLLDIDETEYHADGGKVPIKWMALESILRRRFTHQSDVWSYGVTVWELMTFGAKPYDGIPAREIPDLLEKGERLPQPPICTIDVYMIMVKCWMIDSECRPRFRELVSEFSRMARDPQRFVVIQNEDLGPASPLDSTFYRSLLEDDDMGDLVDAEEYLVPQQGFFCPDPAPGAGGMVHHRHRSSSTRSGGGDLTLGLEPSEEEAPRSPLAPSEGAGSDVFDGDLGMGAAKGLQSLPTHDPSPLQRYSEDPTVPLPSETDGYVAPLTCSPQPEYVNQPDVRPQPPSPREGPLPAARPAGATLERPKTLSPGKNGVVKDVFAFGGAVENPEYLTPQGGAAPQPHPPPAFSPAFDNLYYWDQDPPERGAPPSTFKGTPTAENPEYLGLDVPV
Sequence of BCRP (Q9UNQ0 whole entry): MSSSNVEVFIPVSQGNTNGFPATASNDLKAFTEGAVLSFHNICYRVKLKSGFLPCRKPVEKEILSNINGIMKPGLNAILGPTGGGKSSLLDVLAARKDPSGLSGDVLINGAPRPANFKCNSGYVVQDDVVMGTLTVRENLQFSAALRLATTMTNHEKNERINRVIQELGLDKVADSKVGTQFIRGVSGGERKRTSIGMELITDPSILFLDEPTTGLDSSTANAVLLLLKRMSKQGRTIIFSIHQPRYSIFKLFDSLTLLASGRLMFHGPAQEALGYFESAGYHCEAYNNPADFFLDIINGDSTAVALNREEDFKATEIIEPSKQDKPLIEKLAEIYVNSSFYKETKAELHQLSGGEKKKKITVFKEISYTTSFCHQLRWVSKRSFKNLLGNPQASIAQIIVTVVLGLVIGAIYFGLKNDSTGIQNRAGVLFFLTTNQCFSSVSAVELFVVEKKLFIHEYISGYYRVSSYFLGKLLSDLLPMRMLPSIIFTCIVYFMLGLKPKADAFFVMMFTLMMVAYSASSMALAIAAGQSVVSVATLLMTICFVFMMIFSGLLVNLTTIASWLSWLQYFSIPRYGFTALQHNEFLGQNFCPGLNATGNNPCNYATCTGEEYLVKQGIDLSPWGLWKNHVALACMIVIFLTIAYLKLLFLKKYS

| Structure (SMILES) | IC50 (ErbB2 WT) | efflux ratio at 2 h, 1 μM (MDR1 (P-gp)) | efflux ratio at 2 h, 1 μM (BCRP; [3]) | IC50 (EGFR) | IC50 (EGFR wild type (EGFR WT)) | IC50 ([1]; read-out: Assay 1 IC50) | IC50 [2] | efflux ratio at 2 h, 1 μM (BCRP) | IC50 ([1]; Assay 1 IC50 (nM)) |
| --- | --- | --- | --- | --- | --- | --- | --- | --- | --- |
| Cc1cc(Nc2ncnc3cnc(N4CCN5CCOC[C@H]5C4)nc23)ccc1Oc1ccc2c(c1)ncn2C [Example 180, (R)-6-(hexahydropyrazino[2,1-c][1,4]oxazin-8(1H)-yl)-N-(3-methyl-4-((1-methyl-1H-benzo[d]imidazol-5-yl)oxy)phenyl)pyrimido[5,4-d]pyrimidin-4-amine] | 20.9 nM | 1.3 | 2.7 | 4590 nM | ≥ 5000 nM | 13.2 nM | 15.4 nM | – | – |
| Cn1cnc2cc(Oc3ccc(Nc4ncnc5cnc(N6CCN[C@@H](C(F)(F)F)C6)nc45)cc3Cl)ccc21.O=C(O)C(F)(F)F [Example 146, (R)—N-(3-chloro-4-((1-methyl-1H-benzo[d]imidazol-5-yl)oxy)phenyl)-6-(3-(trifluoromethyl)piperazin-1-yl)pyrimido[5,4-d]pyrimidin-4-amine 2,2,2-trifluoroacetate] | 58.2 nM | 0.8 | – | 3720 nM | ≥ 5000 nM | – | 35.5 nM | 5.1 | 54.1 nM |
| Cc1cc(Nc2ncnc3cnc(N4C[C@@H](F)[C@@H](O)C4)nc23)ccc1Oc1ccc2c(c1)ncn2C [Example 91, (3S,4R)-4-fluoro-1-(8-((3-methyl-4-((1-methyl-1H-benzo[d]imidazol-5-yl)oxy)phenyl)amino)pyrimido[5,4-d]pyrimidin-2-yl)pyrrolidin-3-ol] | 20.6 nM | 2.5 | 50.1 | 6830 nM | ≥ 5000 nM | 12.8 nM | 14.1 nM | – | – |
| Cc1cc(Nc2ncnc3cnc(N4CC[C@@](O)(C(F)F)C4)nc23)ccc1Oc1ccc2c(c1)ncn2C (racemic) [Example 106, rac-(R)-3-(difluoromethyl)-1-(8-((3-methyl-4-((1-methyl-1H-benzo[d]imidazol-5-yl)oxy)phenyl)amino)pyrimido[5,4-d]pyrimidin-2-yl)pyrrolidin-3-ol] | 16.6 nM | 2.6 | 24.3 | 2840 nM | ≥ 5000 nM | 16.8 nM | 18.4 nM | – | – |
| Cc1c(Oc2ccn3ncnc3c2)ccc(Nc2ncnc3cnc(N4CCC(C)(O)CC4)nc23)c1F [Example 304] | 48.6 nM | 1.2 | 7.3 | 2840 nM | ≥ 5000 nM | 11.7 nM | 114 nM | – | – |
| Cc1cc(Nc2ncnc3cnc(N4CC[C@@H](C#N)C4)nc23)ccc1Oc1ccc2c(c1)ncn2C [Example 184, (R)-1-(8-((3-methyl-4-((1-methyl-1H-benzo[d]imidazol-5-yl)oxy)phenyl)amino)pyrimido[5,4-d]pyrimidin-2-yl)pyrrolidine-3-carbonitrile] | 38.1 nM | 1.8 | 4.2 | ≥ 10000 nM | ≥ 5000 nM | 11.7 nM | 20.2 nM | – | – |
| CO[C@H]1CN(c2ncc3ncnc(Nc4ccc(Oc5ccc6c(c5)ncn6C)c(C)c4)c3n2)C[C@H]1O [Example 197, (3R,4S)-4-methoxy-1-(8-((3-methyl-4-((1-methyl-1H-benzo[d]imidazol-5-yl)oxy)phenyl)amino)pyrimido[5,4-d]pyrimidin-2-yl)pyrrolidin-3-ol] | 21 nM | 1.8 | 35.7 | 8640 nM | ≥ 5000 nM | 14.1 nM | 44.9 nM | – | – |
| Cc1cc(Nc2ncnc3cnc(N4CC5CC5(O)C4)nc23)ccc1Oc1ccc2c(c1)ncn2C (centres unmarked) [Example 158, 3-(8-((3-methyl-4-((1-methyl-1H-benzo[d]imidazol-5-yl)oxy)phenyl)amino)pyrimido[5,4-d]pyrimidin-2-yl)-3-azabicyclo[3.1.0]hexan-1-ol] | 58.2 nM | 1.9 | 33.8 | ≥ 10000 nM | ≥ 5000 nM | 29.4 nM | 9.8 nM | – | – |
| Cc1cc(Nc2ncnc3cnc(N(C)[C@@H]4CCOC4)nc23)ccc1Oc1ccc2c(c1)ncn2C [Example 128, (R)—N2-methyl-N8-(3-methyl-4-((1-methyl-1H-benzo[d]imidazol-5-yl)oxy)phenyl)-N2-(tetrahydrofuran-3-yl)pyrimido[5,4-d]pyrimidine-2,8-diamine] | 20 nM | 1.6 | 1.4 | 3270 nM | ≥ 5000 nM | 21 nM | 36.3 nM | – | – |
| Cc1cc(Nc2ncnc3cnc(N4CCC(F)(F)C4)nc23)ccc1Oc1ccc2c(c1)ncn2C [Example 299] | 146 nM | 0.4 | 1.2 | ≥ 10000 nM | ≥ 5000 nM | 49.8 nM | 30.5 nM | – | – |
| Cc1cc(Nc2ncnc3cnc(N(C)C4CCOCC4)nc23)ccc1Oc1ccc2c(c1)ncn2C [Example 153, N2-methyl-N8-(3-methyl-4-((1-methyl-1H-benzo[d]imidazol-5-yl)oxy)phenyl)-N2-(tetrahydro-2H-pyran-4-yl)pyrimido[5,4-d]pyrimidine-2,8-diamine] | 16.3 nM | 1.5 | 1.4 | 5550 nM | ≥ 5000 nM | 7.6 nM | 25 nM | – | – |
| Cc1cc(Nc2ncnc3cnc(N4CC[C@](C)(O)C4)nc23)ccc1Oc1ccc2c(c1)ncn2C [Example 179, (S)-3-methyl-1-(8-((3-methyl-4-((1-methyl-1H-benzo[d]imidazol-5-yl)oxy)phenyl)amino)pyrimido[5,4-d]pyrimidin-2-yl)pyrrolidin-3-ol] | 12.9 nM | 1.9 | 15.3 | 3830 nM | ≥ 5000 nM | 10.1 nM | 28.2 nM | – | – |
| Cc1c(Oc2ccc3c(c2)ncn3C)ccc(Nc2ncnc3cnc(N4CCC[C@](C)(O)C4)nc23)c1F [Example 147, (S)-1-(8-((2-fluoro-3-methyl-4-((1-methyl-1H-benzo[d]imidazol-5-yl)oxy)phenyl)amino)pyrimido[5,4-d]pyrimidin-2-yl)-3-methylpiperidin-3-ol] | 45.5 nM | 1 | 2.7 | 2650 nM | ≥ 5000 nM | 74.2 nM | 32.6 nM | – | – |
| Cn1cnc2cc(Oc3ccc(Nc4ncnc5cnc(N6CCC7COCC76)nc45)cc3Cl)ccc21 (centres unmarked) [Example 114, N-(3-chloro-4-((1-methyl-1H-benzo[d]imidazol-5-yl)oxy)phenyl)-6-(hexahydro-1H-furo[3,4-b]pyrrol-1-yl)pyrimido[5,4-d]pyrimidin-4-amine] | 96.3 nM | 1.5 | 1.2 | 7890 nM | ≥ 5000 nM | 50.1 nM | 20.1 nM | – | – |
| Cc1cc(Nc2ncnc3cnc(N4C[C@@H](O)C5(CC5)C4)nc23)ccc1Oc1ccc2c(c1)ncn2C [Example 211, (S)-5-(8-((3-methyl-4-((1-methyl-1H-benzo[d]imidazol-5-yl)oxy)phenyl)amino)pyrimido[5,4-d]pyrimidin-2-yl)-5-azaspiro[2.4]heptan-7-ol] | 31 nM | 3.3 | – | 3140 nM | ≥ 5000 nM | 10.9 nM | 14.8 nM | 25.2 | – |
| Cc1cc(Nc2ncnc3cnc(N4CCN5CCOC[C@@H]5C4)nc23)ccc1Oc1ccc2c(c1)ncn2C [Example 190, (S)-6-(hexahydropyrazino[2,1-c][1,4]oxazin-8(1H)-yl)-N-(3-methyl-4-((1-methyl-1H-benzo[d]imidazol-5-yl)oxy)phenyl)pyrimido[5,4-d]pyrimidin-4-amine] | 35 nM | 1.3 | 4.7 | 8140 nM | ≥ 5000 nM | 21.5 nM | 14.1 nM | – | – |
| Cn1cnc2cc(Oc3ccc(Nc4ncnc5cnc(N6CC[C@H](CC#N)C6)nc45)cc3Cl)ccc21 [Example 358] | 35.8 nM | 1.6 | 8.9 | ≥ 10000 nM | ≥ 5000 nM | 53.2 nM | 19.2 nM | – | – |
